The values below come from patent US20070249561A1, “Pharmacological method for treatment of neuropathic pain” (priority 2006, published 2007).

Molecules are shown by their SMILES.

The test system of data set [1] is spared nerve injury (SNI) model of neuropathic pain in rats. In words: Mechanical threshold (von Frey) to hindpaw withdrawal in spared nerve injury (SNI) rats. The settings on record: for effect of agonist alone on latency to hindpaw withdrawal (mechanical): 100 μg intrathecal; for effect on behavioral signs of neuropathic pain (mechanical threshold / latency to hindpaw withdrawal): dose series. In kind it is in vivo, rat. An excerpt:
(§1) Male Sprague-Dawley rats (Charles Rivers Laboratories, Inc) were used, and weighed 280-320 g at the time of surgery and intrathecal catheter implantation, and 340-380 g during pharmacological testing. Animals were housed in individual cages on a 12-hour light/dark cycle starting at 6 a.m., and were given food and water […]. All animal use protocols were approved by the Institutional Animal Care and Use Committee (IACUC) of Tulane University.
(§2) Neuropathic pain was modeled in rats using the spared nerve injury model (“SNI”), which is widely accepted as a model for neuropathic pain. To produce the model, rats were anesthetized with isoflurane (5% induction, then 1.5% maintenance in oxygen). As previously described, an incision was made in the skin at the level of the trifurcation of the left sciatic nerve (Decosterd et al., 2000). The overlying muscles were retracted, exposing the common peroneal, tibial, and sural nerves. The common peroneal and tibial nerves were ligated with 6-0 silk (Ethicon, Somerville, N.J.), and then the knot and adjacent nerve (2 mm) were transected. Care was taken to avoid touching the sural nerve branch. The muscle was then sutured with 4-0 absorbable sutures (Ethicon) and the wound was closed with metal clips.
(§3) At the time of nerve injury, animals were re-anesthetized with isoflurane (Baxter, Deerfield, Ill.), and then placed in a stereotaxic apparatus (Stoelting, Wood Dale, Ill.). As previously described (Malkmus et al., 2004), rats were implanted with polyethylene-10 (PE-10, Clay Adams, Sparks, Md.) intrathecal catheters. Briefly, the animal's head was flexed forward in the stereotaxic apparatus, an incision was made in the skin at the back of the head and neck, and the cisternal membrane was exposed by sharp dissection. The membrane was gently punctured with the tip of a #15 scalpel blade, and the distal end of a 7.5 cm long PE-10 catheter was passed through the opening in the cisternal membrane, into the intrathecal space. The catheter was loosely sutured to subcutaneous tissue, leaving the proximal end external to the animal and accessible to the experimenter, and the skin was then approximated using 4-0 absorbable sutures (Ethicon).
(§4) Following surgery, rats were allowed 7 days to recover prior to drug administration and experimentation. To minimize any effects of animal handling on experimental data, drugs and vehicle (saline, or saline and DMSO) were administered via remote injection. PE-10 tubing, filled with vehicle or drug, was used to connect a Hamilton microsyringe to a 30-gauge microinjector, through which 15-20 μL of vehicle or drug was delivered to the lumbar region of the spinal cord via the intrathecal catheter. Progress of the injection was visually confirmed by observing the movement of a small air bubble within the PE-10 tubing. Injectors were left in place an additional minute after fluid delivery, to minimize backflow within the catheter, and animals were then returned to the testing box.
(§5) All drug solutions were freshly prepared daily. After evaporating methyl acetate solvent under a gentle nitrogen stream, 15-deoxy-Δ^12,14 PGJ2 was reconstituted in isotonic saline (comprising 0.9% sodium chloride in water, also called “normal saline”). Rosiglitazone was diluted to the concentrations indicated in the FIGS. with a solution of 30% dimethylsulfoxide (DMSO) and 70% isotonic saline. 15-deoxy-Δ^12,14 PGJ2, rosiglitazone, BADGE, and DMSO were all obtained from Cayman Chemicals (Ann Arbor, Mich.). As used herein, the term “vehicle” refers to the solvent used to dilute the drugs, and may comprise without limitation, DMSO, saline, and water.
(§6) Data are presented as mean±standard error of the mean (SEM). Differences between means were analyzed by two-way repeated-measures analysis of variance (ANOVA), with drug treatment as the between-subjects variable and time as the repeated measure. […]

The subject of a further data set is SNI rats. The settings on record: rat, in vivo.
Data set [2] has as its system spared nerve injury (SNI) model of neuropathic pain in rats. The experiment in a line: Cold allodynia (acetone drop, paw withdrawal duration) in SNI rats. In kind it is in vivo, rat.
Excerpt: as §1, §2, §3, §4, §5, §6

For data set [3], the system named is animals subjected to sham SNI surgery. In words: Accelerating rotarod test of motor coordination in sham SNI rats. The class given is in vivo, rat. On the procedure: To evaluate the effect of PPARγ agonists on proprioceptive function, rats were placed on an accelerating rotarod (Stoelting, Wood Dale, III). The rotating rod was subdivided into four compartments for the simultaneous assessment of four animals. Initially rotating at a rate of 4 rpm, the system was adjusted gradually over 10 minutes to a maximum speed of 40 rpm. The time that a rat remained on the rotating rod without falling off was recorded—the rotarod duration. After sham SNI surgery and one day before testing, animals were acclimated to the rotarod for 5-10 trials, yielding average latencies of approximately 3 minutes. On the day of testing, rotarod duration was measured three times prior to drug or vehicle administration, and the times averaged. After drug administration, rotarod duration was measured in triplicate at 60 and 120 minutes from the time of administration, with durations averaged for each time point.
(§7) To assess more subtle behavioral effects, we evaluated the effects of rosiglitazone on motor coordination and sensory thresholds in uninjured rats.

The test system is the same in data set [4]. In words: Sensory thresholds (mechanical, cold, infrared heat) in rats subjected to sham SNI surgery. In kind it is in vivo, rat. The settings on record: p>0.05. The protocol: The procedures used to evaluate behavioral signs of mechanical and cold allodynia were essentially the same for rats as they were for mice. Animals were acclimated to a stainless steel grid within individual Plexiglas boxes for 30-60 minutes, and then tested for mechanical allodynia and cold allodynia. In all animals, mechanical allodynia was assessed using von Frey (VF) filaments (Stoelting, Inc), and was done before assessing cold allodynia.
To assess mechanical allodynia, the plantar region of each hind paw was stimulated with an incremental series of 8 different VF hairs (monofilaments of logarithmically varying stiffness). In SNI rats and mice, the stimulus region was localized to the sural innervation territory of the lateral aspect of the plantar hind paw. The 50% withdrawal threshold (“mechanical” threshold) was determined using the up-down method of Dixon, modified by Chaplan et al. (Chaplan et al., 1994). First, an intermediate von Frey monofilament (e.g., for rats, number 4.31 was used, which exerts a force of 2.0 g) was applied perpendicular to the plantar skin, causing a slight bending of the hair. In the event of a positive response (defined as rapid withdrawal of the paw within 6 seconds), a smaller filament was tested. In the event of a negative response, a larger filament was tested. The mechanical threshold is the smallest amount of force required to evoke a positive response. […] In such cases von Frey testing was either terminated, or that data was not included in the final analysis.
Cold allodynia was evaluated by applying a drop of acetone to the plantar paw of control and SNI rats. Acetone was applied via a syringe connected to PE-90 tubing, flared at the tip to a diameter of 3.5 mm. Surface tension maintained the volume of the drop to 10-12 μL. The length of time the animal lifted or shook its paw was recorded. The duration of paw withdrawal was recorded for 30 seconds, and three observations were averaged. […]
as §7

As for `CCCCC/C=C/C=C1/C(=O)C=C[C@@H]1CC=CCCCC(=O)O` (stereo in doubt) [15-deoxy-Δ^12,14 PGJ2, (Z)-7-[(1S,5E)-5-[(E)-oct-2-enylidene]-4-oxo-1-cyclopent-2-enyl]hept-5-enoic acid], the “effect of agonist alone on latency to hindpaw withdrawal (mechanical)” value in data set [1] (SNI rats) is recorded as “increased latency to hindpaw withdrawal”. In data set [1] (intrathecal, SNI rats), the “dissipation of analgesic effect (mechanical threshold)” value is “dissipated after four hours”, the “onset of analgesic effect after injection (mechanical threshold)” value is no more than 30 min, the “time of peak analgesic effect after injection (mechanical threshold)” value is “about 60 minutes” and the “effect on behavioral signs of neuropathic pain (mechanical threshold / latency to hindpaw withdrawal)” value is given as “reduced behavioral signs of neuropathic pain”. In addition, the “ED50, log dose-response curve, mechanical threshold (hindpaw withdrawal)” value in data set [1] (intrathecal, SNI rats, 60 minutes after injection) turned out to be 73.97 μg. The “gross behavioral changes or other obvious deleterious effects” value in the data set on SNI rats is reported as “neither 15-deoxy-Δ^12,14 PGJ2 nor rosiglitazone produced gross behavioral changes or other obvious deleterious effects”.

Consider `CC(C)(c1ccc(OCC2CO2)cc1)c1ccc(OCC2CO2)cc1` (stereo not shown) [BADGE, bisphenol A diglycidyl ether], for which the “effect of antagonist administered alone on hindpaw withdrawal latency” value in data set [1] (administered alone, SNI rats) is on record as “did not have a significant effect on hindpaw withdrawal latency”. In data set [1] (intrathecal co-administration with 100 μg 15-deoxy-Δ^12,14 PGJ2, 60 minutes after injection, SNI rats), the “ED50, log dose-response curve, block of 15-deoxy-Δ^12,14 PGJ2-induced elevation of mechanical threshold” value came to 11.44 μg. Moreover, the “effect of co-administered antagonist on analgesic effects of 15-deoxy-Δ^12,14 PGJ2 (mechanical threshold)” value in data set [1] (intrathecal co-administration with 100 μg 15-deoxy-Δ^12,14 PGJ2, SNI rats) is on record as “eliminated the analgesic effects of 15-deoxy-Δ^12,14 PGJ2”. In data set [1] (intrathecal co-administration with 100 μg rosiglitazone, SNI rats), the “effect of co-administered antagonist on rosiglitazone analgesia (mechanical hypersensitivity)” value is reported as “eliminated the analgesic effects of 100 μg rosiglitazone on mechanical hypersensitivity in a dose-dependent manner”. Also, the “effect of co-administered antagonist on rosiglitazone analgesia (cold hypersensitivity)” value in data set [2] (intrathecal co-administration with 100 μg rosiglitazone) was “dose-dependently eliminated the analgesic effects of rosiglitazone”.

Regarding `CN(CCOc1ccc(CC2SC(=O)NC2=O)cc1)c1ccccn1` (stereo not shown) [rosiglitazone, 5-[[4-[2-(methyl-pyridin-2-yl-amino)ethoxy]phenyl]methyl]thiazolidine-2,4-dione], the “effect of agonist alone on latency to hindpaw withdrawal (mechanical)” value in data set [1] (SNI rats) was “reduced behavioral signs of neuropathic pain in a reversible manner”. In data set [1] (intrathecal, SNI rats), the “dissipation of analgesic effect (mechanical threshold)” value was “dissipated after four hours”; the “onset of analgesic effect after injection (mechanical threshold)” value is no more than 30 min; the “time of peak analgesic effect after injection (mechanical threshold)” value is reported as “about 90 minutes”; the “effect on behavioral signs of neuropathic pain (mechanical threshold / latency to hindpaw withdrawal)” value was “reduced behavioral signs of neuropathic pain in a dose-dependent and reversible manner”. Also, in data set [3] (1000 μg), the “effect on motor coordination (rotarod), supra-maximal dose” value is “reduced motor coordination, but this effect was small, not statistically significant”. The “effect on motor coordination (rotarod)” value in data set [3] (p>0.05) was “does not affect”. The “gross behavioral changes or other obvious deleterious effects” value in the data set with SNI rats was “neither 15-deoxy-Δ^12,14 PGJ2 nor rosiglitazone produced gross behavioral changes or other obvious deleterious effects”. In data set [4], the “effect on cold response” value is reported as “does not affect”, the “effect on latency to paw withdrawal response to an infrared heat (IR) stimulus” value is “does not affect” and the “effect on mechanical threshold” value was “does not affect”. In addition, the “effect of agonist alone on cold hypersensitivity” value in data set [2] (100 μg intrathecal) is on record as “decreased cold hypersensitivity in a reversible manner”. In addition, in data set [2] (intrathecal), the “dissipation of analgesic effects (cold allodynia)” value was “dissipated after four hours”, the “onset of analgesic effects after injection (cold allodynia)” value is no more than 30 min and the “time of most pronounced analgesic effects (cold allodynia)” value is given as “approximately 90 minutes”. In data set [2] (intrathecal, dose series), the “effect on cold hypersensitivity (paw withdrawal duration after acetone)” value is “decreased cold hypersensitivity in a dose-dependent and reversible manner”.
